Reference: PubChem BioAssay (NCI)
Values joined by “and” are separate entries in the source; they are usually repeats but may differ in a detail not shown here. Equal entries are not always repeated.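 Values below derive from 48-hour exposures of cells grown in 96-well plates, with endpoints linearly interpolated between the two concentrations bracketing the appropriate inhibition level. GI50 is the concentration that inhibits growth by half. TGI marks complete inhibition of growth.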

Legend:
Assay in all cases: NCI anticancer screen, dose series, 48 h
[1] = system: UO-31 renal
[2] = system: LOX IMVI melanoma
[3] = system: KM12 colon
[4] = system: SNB-75 CNS
[5] = system: NCI-H522 lung
[6] = system: TK-10 renal
[7] = system: SF-268 CNS
[8] = system: EKVX NSCLC
[9] = system: SF-539 CNS
[10] = system: UACC-257 melanoma

Structure (SMILES) | GI50 [1] [µM] | TGI [1] [µM] | GI50 [2] [µM] | TGI [2] | GI50 [3] [µM] | TGI [3] | GI50 [4] [µM] | TGI [4] | GI50 [5] [µM] | TGI [5] [µM] | GI50 [6] [µM] | TGI [6] [µM] | GI50 [7] [µM] | TGI [7] | GI50 [8] [µM] | TGI [8] [µM] | GI50 [9] [µM] | TGI [9] | TGI [10] | GI50 [10] [µM]
COc1ccccc1-n1cnc(N)c1C(=O)c1cc(OC)c(OC)c(OC)c1 | 4.21 | > 100 | 6.39 | > 100 µM | 3.22 | > 100 µM | 2.3 | 9.3 µM | 1.94 | > 100 | 5.21 | > 100 | 4.44 | > 100 µM | 7.55 | > 100 | 2.42 | 9.12 µM |  | 
O=C1/C(=C/c2cccnc2)SC(=S)N1Cc1ccco1 |  | 8.02 |  | > 100 µM |  | 14.5 µM |  |  |  | 4.1 |  | 10.8 |  | > 23.9 µM |  | > 100 |  | 6.12 µM | > 31.5 µM | 
CC1CC(C[N+](=O)[O-])CC2(C1)OCCO2 (stereo not drawn) |  | > 100 |  |  |  | > 100 µM |  | > 100 µM |  | > 100 |  | > 100 |  | > 100 µM |  |  |  | > 100 µM | > 100 µM | 
Cc1cc2c(cc1Cl)SC(N(c1ccccc1Cl)S(=O)(=O)c1ccc(Br)s1)=NS2(=O)=O | 19.9 | 62 | 12.1 | 25.5 µM | 25.8 | 83.4 µM | 17.3 | 48.7 µM | 13.5 | 31.7 | 21.9 | 66.4 | 12.7 | 30.7 µM | 21.9 | 75.5 | 9.92 | 23.7 µM |  | 
C[C@@H](O)[C@@H](C)Oc1nc(Nc2ccc(S(=N)(=O)C3CC3)cc2)ncc1C(F)(F)F (stereo partly drawn) | 0.0239 | 0.0895 | 0.0178 | 10.7 µM | 0.0242 | 1.16 µM | 0.0162 | 0.0554 µM | 0.0328 | 0.81 | 0.0377 | > 45.9 | 0.03 | 0.726 µM |  |  | 0.0162 | 0.0384 µM | 0.133 µM | 0.0306
CCCCC(C(=O)C(=O)Nc1ccc(C)cc1C)C(=O)C(C)C (stereo not drawn) |  | > 100 |  | > 100 µM |  | > 100 µM |  | > 100 µM |  |  |  | > 100 |  | > 100 µM |  | > 100 |  | > 100 µM | > 100 µM | 
CC(=O)OCCOCn1c2ccccc2c2c3c(c4c5ccccc5n(COCCOC(C)=O)c4c21)C(=O)N(Cc1ccccc1)C3=O |  | > 100 |  | > 100 µM |  |  |  | > 100 µM |  |  |  | > 100 |  | > 100 µM |  | > 100 |  | > 100 µM | > 100 µM | 
OCC#CCOCC#Cc1ccccc1C#CCOCC#CCO | > 100 | > 100 |  |  | 35.1 | > 100 µM |  |  | 66.5 | > 100 | 24.4 | 68.8 | 36.9 | > 100 µM | 41.3 | > 100 | 47.4 | > 100 µM | > 100 µM | 35.5
COc1cc(/C=C/C(=O)c2cccc3ccccc23)cc(OC)c1OC |  | 30.5 |  | 12.1 µM |  |  |  | 23.3 µM |  |  |  | 27.3 |  | 18.2 µM |  | 28.7 |  |  | 19.7 µM | 
O/N=C1/CCCC/C1=C/C=C/c1ccccc1 |  | 49.4 |  | 31.3 µM |  | 47.1 µM |  | 75.3 µM |  | 34.1 |  | 62 |  | 47.1 µM |  |  |  | 38.3 µM | 64 µM | 
CC(=O)Nc1ccccc1-c1nc2ccccc2nc1-c1ccccc1 |  | > 100 |  |  |  | > 100 µM |  | > 100 µM |  |  |  |  |  |  |  | > 100 |  | > 100 µM | > 100 µM | 
Nc1nc(N)c2c(n1)NC(c1sc(Cl)nc1Cl)CC(c1ccccc1)=N2 (stereo not drawn) | 3.04 | 15.6 | 5.39 | 18.1 µM | 3.79 | 15.3 µM | 1.63 | 7.59 µM | 3.27 | 14.3 | 11.5 | 24.1 | 5.68 | 22.5 µM |  |  | 2.69 | 9.97 µM | 20.9 µM | 6.77
COc1ccc(C(c2ccccc2C(=O)O)c2ccc(OC)c3ccccc23)c2ccccc12 |  | 19.4 |  | 50.6 µM |  | 23.1 µM |  |  |  | 32.7 |  | 45.3 |  |  |  | 49.8 |  | 24.4 µM | 24.5 µM | 
COc1cccc(/C=N/[N-]C(=O)c2ccncc2)c1[O-].[Mn+2].[OH3+] | 3.83 | 26.5 | 6.59 | > 100 µM | 8.31 | > 100 µM | 26.8 | > 100 µM |  |  | 18.3 | > 100 | 4.97 | 79.5 µM | 9.25 | > 100 | 2.51 | 8.97 µM | 96.2 µM | 5.05
O=C(Nc1ccc(OS(=O)(=O)c2ccc(F)cc2)cc1)C12CC3CC(CC(C3)C1)C2 | 6.21 | > 100 | > 27.5 | > 100 µM | 1.15 | > 100 µM | 4.51 | 26.8 µM | 1.72 | > 100 | 21.5 | 62.6 | 19.8 | > 100 µM |  |  | 0.75 | > 100 µM | > 100 µM | 11
CCOC(=O)/C(=C/CC/C(C)=C/CC/C(C)=C/CCc1ccoc1)CC(=O)N1CCCCC1 | 2.8 | 12.8 | 4.43 | 15.8 µM | 4.59 | 19.2 µM | 4.1 | 35.3 µM | 2.75 | 9.2 | 5.66 | 75.5 | 8.91 | 38.3 µM |  |  | 7.9 | 20.9 µM | 7.41 µM | 2.29
NC(Cc1ccccc1)C(=O)OCN1C(=O)C2C3C=CC(C2C1=O)C1C2C(=O)N(COC(=O)C(N)Cc4ccccc4)C(=O)C2C31 (stereo not drawn) | 40.6 |  |  | 41.4 µM and 36.8 µM |  | 40.7 µM and 40.1 µM |  | 64.6 µM and 62.3 µM |  |  |  | > 100 |  | 48.3 µM and 41.6 µM |  | > 100 |  | 44.8 µM and 44.6 µM | 67.1 µM and 50.1 µM | 
CN1CCN(CCCOc2cccc3nc(Nc4cc(Cl)cc(Cl)c4)ccc23)CC1 | 1.49 | 2.95 |  |  | 1.72 | 3.29 µM |  |  | 1.64 | 3.17 | 1.75 | 3.17 | 1.69 | 3.38 µM | 1.73 | 3.27 | 1.57 | 3.03 µM | 3.54 µM | 1.97
Cc1cccc2c(C3=C(c4cn(C)c5ccccc45)C(=O)NC3=O)cn(C)c12 | > 21.5 | > 25 | > 22 | > 25 µM | > 20.8 | > 25 µM | 1.15 | > 25 µM | > 17 | > 25 | > 25 | > 25 | 13.6 | > 25 µM |  |  | 19.1 | > 25 µM | > 25 µM | 24.8
O=C(NC1CCN(Cc2ccccc2)CC1)c1cc(-c2cccnc2)nc2ccc(Cl)cc12 | 4.24 | 21.4 | 3.27 | 17.2 µM | 13.7 | > 100 µM | 2.18 | 12.7 µM |  |  |  |  | 9.27 | 70.1 µM |  |  | 11.9 | 24.2 µM | > 100 µM | > 100
C#CCN(N=O)C(=O)NC(CCCCNC(=O)OCc1ccccc1)C(=O)OCc1ccccc1 (stereo not drawn) |  | 87 |  | 59.1 µM |  | > 100 µM |  | 97.4 µM |  | 31.7 |  | 86 |  | > 100 µM |  | 55.3 |  |  | 79.5 µM | 
CCn1cnc(C[C@H](NC(=O)[C@H](CCCCNC(=O)Nc2cc(C(F)(F)F)cc(C(F)(F)F)c2)NC(=O)Nc2cc(C(F)(F)F)cc(C(F)(F)F)c2)C(=O)OC)c1 | > 10 | > 10 | 3.56 | > 10 µM | 4.41 | > 10 µM | 1.37 | > 10 µM | 5.19 | > 10 | 7.46 | > 10 | 6.04 | > 10 µM |  |  | > 10 | > 10 µM | > 10 µM | > 10
N#CCc1c(F)c(F)c(F)c(F)c1F |  | > 100 |  | > 100 µM |  | > 100 µM |  |  |  | > 100 |  | > 100 |  | > 100 µM |  | > 100 |  | > 100 µM | > 100 µM | 
Nc1n[n+]([O-])c2cc([N+](=O)[O-])ccc2[n+]1[O-] |  | 23.7 |  | > 100 µM |  |  |  | 83.4 µM |  | 4.25 |  | 86.1 |  |  |  |  |  | 16 µM | 27.1 µM | 
Oc1ccc2ccccc2c1CCc1c(O)ccc2ccccc12 |  |  |  | 28 µM |  | 24.8 µM |  | 18.3 µM |  |  |  | 32.5 |  | 25.2 µM |  | 26.4 |  | 30.3 µM | 27.2 µM | 
O=C(CCc1nc(=S)[nH][nH]1)Nc1cc(Cl)ccc1Cl |  | > 100 |  |  |  | > 100 µM |  | > 100 µM |  | > 100 |  | > 100 |  | > 100 µM |  | > 100 |  | > 100 µM | > 100 µM | 
